Experimental data as given in paper PMC5382548 (Scientific Reports, 2015).

How the values were obtained:
[1] = test system: MiaPaCa2 (pancreatic); assay: SRB short-term cytotoxicity assay, MiaPaCa2; format: cell-based; conditions: Homo sapiens, MIA PaCa-2, 96 h
Protocol: Short-term anti-proliferative assays were carried out by two different assays using a panel of human cancer and non-malignant human cell lines. […] The transformed human embryonic kidney cell line HEK293T (wt KRAS) was sensitive to all tested drugs, including TMPyP4, a cationic porphyrin established as a G4 ligand, as well as the anticancer drug 5-fluorouracil (5-FU).
Human cell lines, breast carcinoma (MCF7), lung carcinoma (A549), pancreatic cancer (MIA PaCa2, Panc-1), immortalised telomerase-negative human lung fibroblast (ALT) and normal human lung fibroblast (WI-38), were all purchased from American Type Cell Culture (ATCC). Cell lines were maintained in appropriate medium supplemented with 10% fetal bovine serum (Invitrogen, UK), 2 mM L-glutamine (Invitrogen, Netherlands), and other components as specified by the suppliers. All cell lines were maintained at 37°C, 5% CO2, and routinely passaged. Short-term growth inhibition was measured using the SRB assay as described previously[43] […]
After electrophoretic transfer onto nitrocellulose membranes, immunoblots were blocked with 5% milk solution, and next incubated overnight at 4 °C with primary mouse monoclonal antibody reactive to KRAS/p53 (#sc-30/sc-126; Santa Cruz Biotechnology Inc., Santa Cruz, CA, USA). […] Steady-state protein levels were expressed as mean ±SEM from at least three independent experiments.

[2] = test system: 26ds (ds26) (DNA, duplex) CAATCGGATCGAATTCGATCCGATTG; assay: spectrofluorimetric titration, one-site saturation fit; conditions: 60 mM K+; K-cacodylate pH 7.4, 25 °C; 1 μM compound; SD ≤ 0.2 × 10^6
[3] = test system: KRAS32R G4; assay: FRET melting assay, KRAS32R G4; format: binding, human; conditions: G4 0.2 μM, ligand 1 μM
Protocol: Two compounds 2d and 3e were selected and evaluated for their ability to stabilize the 32-mer sequence in the NHE of the human KRAS promoter (KRAS32R)[12], two G4 motifs in the 5′UTR of KRAS mRNA (UTR-1 and UTR-2)[24] and a 21-mer DNA G4 from the human telomeric sequence (F21T). The KRAS32R sequence has been described as forming two G4 structures which exist in equilibrium. One sequence folds into a G4 (Q1) with a Tm of ~55°C that is disrupted on increasing the temperature and then, the full-length 32-mer sequence folds into a new G4 (Q2, Tm of ~72°C)[13]. In our assay, the KRAS32R sequence (in the presence or absence of IQcs) folded in a single G4 structure (Tm ≈ 54°C), as shown by the single inflection for the first derivative of the FRET melting data (Sup. Inf.; Figure S4). This monophasic behaviour was also observed in the presence of TMPyP4[13].
Oligonucleotide sequences were purchased from Eurofins MWG Synthesis GmbH, Germany or STAB VIDA Genomics Lab, Caparica, Lisbon, Portugal. […]
The ability of indolo[3,2-c]quinolines to stabilize DNA sequences was investigated using a Fluorescence Resonance Energy Transfer (FRET) assay as reported elsewhere.

[4] = test system: UTR-2 (RNA, G4) UGUGGGAGGGGCGGGUCUGGG; assay: FRET melting; conditions: 60 mM K+; K-cacodylate pH 7.4; 0.2 μM RNA, 1 μM compound; SD ≤ 0.2

SMILES	IC50 [1]	Ka [2]	ΔTm KRAS32R [3]	ΔTm [4]
Cn1cc2c3ccccc3nc-2c2cc(Br)ccc21 [2a, 2-bromo-5-methyl-indolo[3,2-c]quinoline]	2200 nM	800000 M⁻¹		
CCN(CC)CCCNc1ccc2c(c1)c1[nH]c3ccccc3c1c[n+]2C [2d]			10.7 °C	2.0 °C
CCN(CC)CCCNc1ccc2c(c1)[nH]c1c2c[n+](C)c2ccc(NCCCN(CC)CC)cc12.[Cl-] [3e]	1980 nM		17.0 °C	9.9 °C
